# From PubChem BioAssay AID2060328 (Molecular Pharmacology Branch, DTP, NCI, 2025)
# Tested on: MDA-MB-231 multicell spheroids, viability (%T/C)
# Experiment: Anticancer human tumor MDA-MB-231 cell line growth inhibition [IpAb];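 further: viability read after seven days of drug exposure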;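 on viability, T/C: 100% = DMSO vehicle control viability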
# Conditions: for IC50: curve of first compound; for viability, T/C: stronger effect = lower value
# How it was run: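 Spheroids of 60% malignant cells, 25% HUVEC and 15% MSC were exposed to targeted agents combined with ipatasertib or abemaciclib. Doses started at or near clinical Cmax (10 microM when unknown) and fell in half-log steps.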
# [1] = second compound 0.1 µM, first compound 0.0316 µM
# [2] = second compound 0.1 µM, first compound 0.1 µM
# [3] = second compound 0.1 µM, first compound 0.316 µM
# [4] = second compound 0.1 µM, first compound 1 µM
# [5] = second compound 0.1 µM, first compound 3.16 µM
# [6] = second compound 0.1 µM, first compound 10 µM
# [7] = second compound 0.316 µM, first compound 0.0316 µM
# [8] = second compound 0.316 µM, first compound 0.1 µM
# [9] = second compound 0.316 µM, first compound 0.316 µM
# [10] = second compound 0.316 µM, first compound 1 µM
# [11] = second compound 0.316 µM, first compound 3.16 µM
# [12] = second compound 0.316 µM, first compound 10 µM
# [13] = second compound 1 µM, first compound 0.0316 µM
# [14] = second compound 1 µM, first compound 0.1 µM
# [15] = second compound 1 µM, first compound 0.316 µM
# [16] = second compound 1 µM, first compound 1 µM
# [17] = second compound 1 µM, first compound 3.16 µM
# [18] = second compound 1 µM, first compound 10 µM
# [19] = second compound 3.16 µM, first compound 0.0316 µM
# [20] = second compound 3.16 µM, first compound 0.1 µM
# [21] = second compound 3.16 µM, first compound 0.316 µM
# [22] = second compound 3.16 µM, first compound 1 µM
# [23] = second compound 3.16 µM, first compound 3.16 µM
# [24] = second compound 3.16 µM, first compound 10 µM
# [25] = second compound 10 µM, first compound 0.0316 µM
# [26] = second compound 10 µM, first compound 0.1 µM
# [27] = second compound 10 µM, first compound 0.316 µM
# [28] = second compound 10 µM, first compound 1 µM
# [29] = second compound 10 µM, first compound 3.16 µM
# [30] = second compound 10 µM, first compound 10 µM
compound,measurement,setting,value
CC(=O)c1c(C)c2cnc(Nc3ccc(N4CCNCC4)cn3)nc2n(C2CCCC2)c1=O + CC(C)NCC(C(=O)N1CCN(c2ncnc3c2C(C)CC3O)CC1)c1ccc(Cl)cc1,IC50,second compound 0.1 µM,35.1 nM
same,IC50,second compound 0.316 µM,17.3 nM
same,IC50,second compound 1 µM,7.21 nM
same,IC50,second compound 3.16 µM,1.28 nM
same,IC50,second compound 10 µM,< 0.949 nM
same,"viability, T/C","second compound 0.1 µM, first compound 0.000949 µM",93.3%
same,"viability, T/C","second compound 0.1 µM, first compound 0.003 µM",89.6%
same,"viability, T/C","second compound 0.1 µM, first compound 0.00949 µM",67.7%
same,"viability, T/C","second compound 0.1 µM, first compound 0.03 µM",53%
same,"viability, T/C","second compound 0.1 µM, first compound 0.0949 µM",40.3%
same,"viability, T/C","second compound 0.1 µM, first compound 0.3 µM",35%
same,"viability, T/C","second compound 0.316 µM, first compound 0.000949 µM",82.4%
same,"viability, T/C","second compound 0.316 µM, first compound 0.003 µM",73.8%
same,"viability, T/C","second compound 0.316 µM, first compound 0.00949 µM",58.9%
same,"viability, T/C","second compound 0.316 µM, first compound 0.03 µM",42%
same,"viability, T/C","second compound 0.316 µM, first compound 0.0949 µM",34.4%
same,"viability, T/C","second compound 0.316 µM, first compound 0.3 µM",32%
same,"viability, T/C","second compound 1 µM, first compound 0.000949 µM",69%
same,"viability, T/C","second compound 1 µM, first compound 0.003 µM",60.9%
same,"viability, T/C","second compound 1 µM, first compound 0.00949 µM",45.9%
same,"viability, T/C","second compound 1 µM, first compound 0.03 µM",36%
same,"viability, T/C","second compound 1 µM, first compound 0.0949 µM",26.9%
same,"viability, T/C","second compound 1 µM, first compound 0.3 µM",26.3%
same,"viability, T/C","second compound 3.16 µM, first compound 0.000949 µM",50.4%
same,"viability, T/C","second compound 3.16 µM, first compound 0.003 µM",47.5%
same,"viability, T/C","second compound 3.16 µM, first compound 0.00949 µM",39.5%
same,"viability, T/C","second compound 3.16 µM, first compound 0.03 µM",29.1%
same,"viability, T/C","second compound 3.16 µM, first compound 0.0949 µM",25.5%
same,"viability, T/C","second compound 3.16 µM, first compound 0.3 µM",22.2%
same,"viability, T/C","second compound 10 µM, first compound 0.000949 µM",38.5%
same,"viability, T/C","second compound 10 µM, first compound 0.003 µM",33.9%
same,"viability, T/C","second compound 10 µM, first compound 0.00949 µM",27.2%
same,"viability, T/C","second compound 10 µM, first compound 0.03 µM",24.7%
same,"viability, T/C","second compound 10 µM, first compound 0.0949 µM",22.4%
same,"viability, T/C","second compound 10 µM, first compound 0.3 µM",20.3%
CC1(C)CCC(CN2CCN(c3ccc(C(=O)NS(=O)(=O)c4ccc(NCC5CCOCC5)c([N+](=O)[O-])c4)c(Oc4cnc5[nH]ccc5c4)c3)CC2)=C(c2ccc(Cl)cc2)C1 + CC(C)NCC(C(=O)N1CCN(c2ncnc3c2C(C)CC3O)CC1)c1ccc(Cl)cc1,IC50,second compound 0.1 µM,5990 nM
same,IC50,second compound 0.316 µM,5380 nM
same,IC50,second compound 1 µM,4750 nM
same,IC50,second compound 3.16 µM,3680 nM
same,IC50,second compound 10 µM,< 31.6 nM
same,"viability, T/C",[1],99%
same,"viability, T/C",[2],96.8%
same,"viability, T/C",[3],103%
same,"viability, T/C",[4],95.9%
same,"viability, T/C",[5],96.9%
same,"viability, T/C",[6],12.4%
same,"viability, T/C",[7],86.2%
same,"viability, T/C",[8],88.3%
same,"viability, T/C",[9],93.7%
same,"viability, T/C",[10],94.5%
same,"viability, T/C",[11],86.1%
same,"viability, T/C",[12],7.75%
same,"viability, T/C",[13],75.9%
same,"viability, T/C",[14],79.4%
same,"viability, T/C",[15],75.4%
same,"viability, T/C",[16],77.7%
same,"viability, T/C",[17],71.2%
same,"viability, T/C",[18],10.9%
same,"viability, T/C",[19],60.8%
same,"viability, T/C",[20],57.2%
same,"viability, T/C",[21],59.4%
same,"viability, T/C",[22],60.1%
same,"viability, T/C",[23],56.5%
same,"viability, T/C",[24],7.09%
same,"viability, T/C",[25],39.8%
same,"viability, T/C",[26],43%
same,"viability, T/C",[27],40.5%
same,"viability, T/C",[28],39.4%
same,"viability, T/C",[29],36.4%
same,"viability, T/C",[30],4.22%
COc1c(OCCCN2CCOCC2)ccc2c3n(c(=NC(=O)c4cnc(N)nc4)nc12)CCN3 + CC(C)NCC(C(=O)N1CCN(c2ncnc3c2C(C)CC3O)CC1)c1ccc(Cl)cc1,IC50,second compound 0.1 µM,50.9 nM
same,IC50,second compound 0.316 µM,27.7 nM
same,IC50,second compound 1 µM,16.1 nM
same,IC50,second compound 3.16 µM,4.7 nM
same,IC50,second compound 10 µM,< 3.16 nM
same,"viability, T/C","second compound 0.1 µM, first compound 0.00316 µM",85.3%
same,"viability, T/C","second compound 0.1 µM, first compound 0.01 µM",70.1%
same,"viability, T/C",[1],57.4%
same,"viability, T/C",[2],42.3%
same,"viability, T/C",[3],34.1%
same,"viability, T/C",[4],40.3%
same,"viability, T/C","second compound 0.316 µM, first compound 0.00316 µM",71%
same,"viability, T/C","second compound 0.316 µM, first compound 0.01 µM",59.4%
same,"viability, T/C",[7],51.7%
same,"viability, T/C",[8],37.5%
same,"viability, T/C",[9],31.7%
same,"viability, T/C",[10],41%
same,"viability, T/C","second compound 1 µM, first compound 0.00316 µM",62.6%
same,"viability, T/C","second compound 1 µM, first compound 0.01 µM",54.4%
same,"viability, T/C",[13],43.9%
same,"viability, T/C",[14],36.3%
same,"viability, T/C",[15],28.2%
same,"viability, T/C",[16],41.9%
same,"viability, T/C","second compound 3.16 µM, first compound 0.00316 µM",52.1%
same,"viability, T/C","second compound 3.16 µM, first compound 0.01 µM",47%
same,"viability, T/C",[19],37.1%
same,"viability, T/C",[20],30.4%
same,"viability, T/C",[21],25.2%
same,"viability, T/C",[22],32.5%
same,"viability, T/C","second compound 10 µM, first compound 0.00316 µM",33.6%
same,"viability, T/C","second compound 10 µM, first compound 0.01 µM",31.9%
same,"viability, T/C",[25],28.2%
same,"viability, T/C",[26],22.6%
same,"viability, T/C",[27],20%
same,"viability, T/C",[28],31.1%
Cc1nc(NC(=O)N2CCCC2C(N)=O)sc1-c1ccnc(C(C)(C)C(F)(F)F)c1 (stereo not given) + CC(C)NCC(C(=O)N1CCN(c2ncnc3c2C(C)CC3O)CC1)c1ccc(Cl)cc1,IC50,second compound 0.1 µM,> 10000 nM
same,IC50,second compound 0.316 µM,> 10000 nM
same,IC50,second compound 1 µM,> 10000 nM
same,IC50,second compound 3.16 µM,< 31.6 nM
same,IC50,second compound 10 µM,< 31.6 nM
same,"viability, T/C",[1],84.1%
same,"viability, T/C",[2],71.3%
same,"viability, T/C",[3],64.7%
same,"viability, T/C",[4],71.8%
same,"viability, T/C",[5],71.4%
same,"viability, T/C",[6],62.5%
same,"viability, T/C",[7],74.8%
same,"viability, T/C",[8],63.7%
same,"viability, T/C",[9],58.3%
same,"viability, T/C",[10],59.9%
same,"viability, T/C",[11],64.8%
same,"viability, T/C",[12],60.8%
same,"viability, T/C",[13],63.1%
same,"viability, T/C",[14],58.7%
same,"viability, T/C",[15],55.3%
same,"viability, T/C",[16],55.3%
same,"viability, T/C",[17],58%
same,"viability, T/C",[18],55.8%
same,"viability, T/C",[19],50.7%
same,"viability, T/C",[20],45.8%
same,"viability, T/C",[21],41.4%
same,"viability, T/C",[22],46%
same,"viability, T/C",[23],46.1%
same,"viability, T/C",[24],42.6%
same,"viability, T/C",[25],35.2%
same,"viability, T/C",[26],33.1%
same,"viability, T/C",[27],31.6%
same,"viability, T/C",[28],33.1%
same,"viability, T/C",[29],37.8%
same,"viability, T/C",[30],32.8%
